What was measured:
Solubility (qualitative) = assay type: physicochemical; settings: for DMSO and aqueous solubility: chlorinated derivatives
SMARCA2B = target: T1, SMARCA2B (Homo sapiens, UniProt P51531); test: Isothermal calorimetry (ITC), SMARCA2B; assay type: binding
T1 construct: made in house
Experimental: (§1) Protein Expression and Purification.
(§2) Proteins were cloned, expressed, and purified as previously described.1 […]
(§3) Bromodomain DSF Tm assays were performed using a Mx3005p real-time PCR machine (Agilent) and low profile 96-well PCR plates (AB-0700, Life Technologies). Protein was buffered in 10 mM HEPES, pH 7.5, 500 mM NaCl and assayed at a concentration of 2 µM with 10 µM inhibitor concentration and 1:1000 SyproOrange (Invitrogen). Excitation and emission filters were set to 465 and 590 nm respectively. The temperature was raised by 3 °C per 1 min from 25–95 °C, and fluorescence readers were taken at each interval. Data analysis was carried out as described previously.2
(§4) AlphaScreen Displacement Assay.
(§5) AlphaScreen assays were based on a reported protocol, with minor variations.3 In place of a biotinylated peptide, a biotinylated ligand was used at 25 nM final concentration.
(§6) Isothermal Calorimetry Experiments.
(§7) Calorimetric experiments were performed on a VP-ITC micro-calorimeter (MicroCalTM, LLC Northampton, MA). Protein solutions were buffer exchanged by dialysis into buffer 20 mM Hepes pH 7.5, 150 mM NaCl, and 0.5 mM TCEP. All measurements were carried out at 293.15 K while stirring at 286 rpm. The micro syringe was loaded with protein solutions ranging from […]
for the cell. All injections for PB1(5) were performed using an initial injection of 2 μl followed by 30 injections of 8 μl with a duration of 16 sec per injection and a spacing of 240 sec between injection. Injections for SMARCA2B and SMARCA4 were performed using an initial injection of 2 μl followed by 35 injections of 8 μl with a duration of 16 sec per injection and a spacing of 240 sec between injection.The data were analyzed with the MicroCal ORIGIN software package employing a single binding site model. The first data point was excluded from the analysis.
Thermodynamic parameters were calculated (ΔG = ΔH - TΔS = -RTlnKB where ΔG, ΔH and ΔS are the changes in free energy, enthalpy and entropy of binding, respectively).
Fluorescence Recovery After Photobleaching (FRAP)
FRAP studies were performed essentially as described. In brief, U2OS cells were transfected (Fugene HD; Roche) with mammalian over-expression constructs encoding GFP fused to the N-terminus of full length wild-type or mutant SMARCA2 (1). The imaging system consisted of a Zeiss LSM 710 laser-scanning and control system (Zeiss) coupled to an inverted Zeiss Axio Observer.Z1 microscope equipped with a high-numerical-aperture (N. A. 1.3) 40 x oil immersion objective (Zeiss). […] FRAP and GFP fluorescence imaging were both carried out with an argon-ion laser (488 nm) and with a PMT detector set to detect fluorescence between 500-550 nm. […] The image datasets and fluorescence recovery data were exported from ZEN 2009, the microscope control

PB1(5) [1] = target: T2, PB1(5) (Homo sapiens, UniProt Q86U86); test: Isothermal calorimetry (ITC), PB1(5) bromodomain; assay type: binding; settings: for K × 10^6 (M^–1): 293.15 K
T2 construct: the fifth bromodomain of PB1 (PB1(5)); made in house
T2 sequence (Q86U86 653-774): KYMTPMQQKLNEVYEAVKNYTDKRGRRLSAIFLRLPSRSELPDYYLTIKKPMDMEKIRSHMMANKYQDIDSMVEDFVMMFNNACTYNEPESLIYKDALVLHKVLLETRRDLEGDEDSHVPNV

SMARCA4 = SMARCA4 (Homo sapiens, UniProt P51532); test: Isothermal calorimetry (ITC), SMARCA4; assay type: binding
SMARCA4, sequence (P51532 1453-1564 limits assumed): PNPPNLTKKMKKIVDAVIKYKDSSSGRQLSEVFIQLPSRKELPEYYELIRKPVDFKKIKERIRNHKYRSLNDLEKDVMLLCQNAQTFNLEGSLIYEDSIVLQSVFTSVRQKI

PB1(5) [2] = target: T2, PB1(5); test: DSF Tm shift assay, PB1(5) bromodomain; assay type: binding; settings: for ΔTm at 10 µM / PB1(5) ΔTm: 10 μM inhibitor, average of three replicates; for PB1(5) Tm (Supplementary Table 2): average of three replicates and standard deviation
PCAF = target: T3, PCAF (Homo sapiens, UniProt Q92831); test: DSF Tm shift assay, PCAF; assay type: binding; settings: 10 μM, single measurement
T3 construct: representative bromodomains (PCAF, BRD4(1), CREBBP, TRIM33B) from other subfamilies using DSF; made in house
T3 sequence (Q92831 723-827 limits assumed): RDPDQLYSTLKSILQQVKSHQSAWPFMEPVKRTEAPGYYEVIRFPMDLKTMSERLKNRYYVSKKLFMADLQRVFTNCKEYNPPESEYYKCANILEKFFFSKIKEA
Experimental: as §1, §2, §3, §4, §5, §6, §7

CREBBP = target: T4, CREBBP (Homo sapiens, UniProt Q92793); test: DSF Tm shift assay, CREBBP; assay type: binding; settings: 10 μM, single measurement
T4 construct: representative bromodomains (PCAF, BRD4(1), CREBBP, TRIM33B) from other subfamilies using DSF; made in house
T4 sequence (Q92793 1085-1192 limits assumed): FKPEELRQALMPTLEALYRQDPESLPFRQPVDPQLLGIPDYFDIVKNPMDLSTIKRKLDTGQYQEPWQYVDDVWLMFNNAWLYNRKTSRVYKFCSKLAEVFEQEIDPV
Experimental: as §1, §2, §3, §4, §5, §6, §7

TRIM33B = target: T5, TRIM33B (Homo sapiens, UniProt Q9UPN9); test: DSF Tm shift assay, TRIM33B; assay type: binding; settings: 10 μM, single measurement
T5 construct: representative bromodomains (PCAF, BRD4(1), CREBBP, TRIM33B) from other subfamilies using DSF; made in house
T5 sequence (Q9UPN9 957-1063 isoform Q9UPN9-2 limits assumed): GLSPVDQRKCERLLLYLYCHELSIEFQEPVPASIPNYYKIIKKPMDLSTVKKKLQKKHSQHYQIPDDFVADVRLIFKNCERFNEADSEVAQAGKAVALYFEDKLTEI
Experimental: as §1, §2, §3, §4, §5, §6, §7

BRPF1B = target: T6, BRPF1B (Homo sapiens, UniProt P55201); test: DSF Tm shift assay, BRPF1B; assay type: binding; settings: single measurement
T6 construct: Bromodomain DSF Tm assays were performed; made in house
T6 sequence (P55201 628-732 limits assumed): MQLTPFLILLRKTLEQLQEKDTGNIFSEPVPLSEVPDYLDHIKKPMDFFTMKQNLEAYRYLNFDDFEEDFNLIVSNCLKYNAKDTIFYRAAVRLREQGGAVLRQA
Experimental: as §1, §2, §3, §4, §5, §6, §7

BRD9A = target: T7, BRD9A (Homo sapiens, UniProt Q9H8M2); test: DSF Tm shift assay, BRD9A; assay type: binding; settings: single measurement
T7 construct: Bromodomain DSF Tm assays were performed; made in house
T7 sequence (Q9H8M2 136-240 limits assumed): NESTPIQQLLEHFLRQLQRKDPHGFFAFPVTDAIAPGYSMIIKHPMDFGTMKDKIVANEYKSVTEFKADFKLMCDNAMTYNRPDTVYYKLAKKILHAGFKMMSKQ
Experimental: as §1, §2, §3, §4, §5, §6, §7

CECR2A = target: T8, CECR2A (Homo sapiens, UniProt Q9BXF3); test: DSF Tm shift assay, CECR2A; assay type: binding; settings: single measurement
T8 construct: Bromodomain DSF Tm assays were performed; made in house
T8 sequence (Q9BXF3 434-538 limits assumed): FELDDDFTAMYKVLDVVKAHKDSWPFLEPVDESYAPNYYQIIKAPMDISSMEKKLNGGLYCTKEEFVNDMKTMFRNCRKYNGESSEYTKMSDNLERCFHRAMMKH
Experimental: as §1, §2, §3, §4, §5, §6, §7

T1 sequence (P51531 1373-1493 isoform P51531-2 limits assumed): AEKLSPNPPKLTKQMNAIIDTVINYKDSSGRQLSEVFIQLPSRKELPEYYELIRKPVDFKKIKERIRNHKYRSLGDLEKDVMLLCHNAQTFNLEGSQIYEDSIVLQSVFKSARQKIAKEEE

In the case of `O=c1nc2n(c3ccccc13)CC/C2=C\c1ccoc1` [Compound 1], the aqueous solubility (Solubility (qualitative)) is reported as “poor”.
For `CN1CCN(/C=C2\CCn3c2nc(=O)c2c(Cl)cccc23)CC1` [Compound 26], the “K×10^6 (M-1)” value (SMARCA2B) was 3.81 ×10^6 M-1, the TΔS (SMARCA2B) was 5.508 kcal/mol and the ΔG (SMARCA2B) was -8.810 kcal/mol. The ΔH (SMARCA2B) was -3.302 kcal/mol, the ΔG (PB1(5) [1]) was -9.272 kcal/mol and the “K × 10^6 (M^–1)” value (PB1(5) [1]) was 8.09 × 10^6 M^–1. The “K×10^6 (M-1)” value (SMARCA4) was 2.40 ×10^6 M-1, the TΔS (SMARCA4) was 4.835 kcal/mol and the ΔG (SMARCA4) was -4.838 kcal/mol. For the same compound, the ΔH (SMARCA4) was -3.727 kcal/mol and the “DMSO and aqueous solubility” value (Solubility (qualitative)) was “greatly improved”.
Work on `COc1cccc2c1c(=O)nc1n2CCC1` [Compound 20c] yielded a ΔTm at 10 µM (PB1(5) [2]) of -0.6 ± 0.5 °C.
In the case of `CCN1CCN(/C=C2\CCn3c2nc(=O)c2c(Cl)cccc23)CC1` [Compound 27], the TΔS (PB1(5) [1]) is reported as 4.7 kcal/mol, the ΔG (PB1(5) [1]) is reported as -9.198 kcal/mol and the “K × 10^6 (M^–1)” value (PB1(5) [1]) is reported as 7.05 × 10^6 M^–1. The “DMSO and aqueous solubility” value (Solubility (qualitative)) was “greatly improved”.
With `O=c1nc2n(c3ccccc13)CCC2` [Compound 4, 2,3-Dihydropyrrolo[1,2-a]quinazolin-5(1H)-one] the “PB1(5) ΔTm” value (PB1(5) [2]) was “no interaction” and the ΔTm at 10 µM (PB1(5) [2]) was 0 °C.
For `CCCN(/C=C1\CCn2c1nc(=O)c1ccccc12)CCC` [Compound 7, (E)-3-((Dipropylamino)methylene)-2,3-dihydropyrrolo[1,2-a]quinazolin-5(1H)-one], the “PB1(5) ΔTm” value (PB1(5) [2]) was “moderate activity”.
Compound `O=c1nc2n(c3cccc(F)c13)CCC2` [Compound 17c] has a ΔTm at 10 µM (PB1(5) [2]) of -0.1 ± 0.8 °C.
For `O=c1nc2n(c3cccc(O)c13)CCC2` [Compound 21c], the ΔTm at 10 µM (PB1(5) [2]) was -0.1 ± 0.4 °C.
With `CC(C)N(/C=C1\CCn2c1nc(=O)c1ccccc12)C(C)C` [Compound 8, (E)-3-((Diisopropylamino)methylene)-2,3-dihydropyrrolo[1,2-a]quinazolin-5(1H)-one] the “PB1(5) ΔTm” value (PB1(5) [2]) was “loss of binding”.
For `O=c1nc2n(c3cccc(Cl)c13)CC/C2=C\N1CCOCC1` [Compound 25], the “PCAF Tm” value (PCAF) was 0.8 °C, the “CREBBP Tm” value (CREBBP) was 0.1 °C and the “TRIM33B Tm” value (TRIM33B) was 0.9 °C.
With `CN1CCCN(/C=C2\CCn3c2nc(=O)c2ccccc23)CC1` [Compound 15] the “PB1(5) Tm (Supplementary Table 2)” value (PB1(5) [2]) was 3.5 ± 0.2 °C, the “BRPF1B Tm” value (BRPF1B) was 0.2 °C and the “BRD9A Tm” value (BRD9A) was 0.0 °C. For the same compound, the “CECR2A Tm” value (CECR2A) was 0.0 °C.
In the case of `CCN1CCN(/C=C2\CCn3c2nc(=O)c2ccccc23)CC1` [Compound 13], the “PB1(5) Tm (Supplementary Table 2)” value (PB1(5) [2]) is reported as 5.0 ± 0.5 °C, the “BRPF1B Tm” value (BRPF1B) is reported as 0.0 °C and the “BRD9A Tm” value (BRD9A) is reported as 0.8 °C. For the same compound, the “CECR2A Tm” value (CECR2A) was 0.1 °C.
